Experiments:
[1] = system: E-cadherin and Vimentin in cells of tumor inoculated nude mice; assay: immunochemistry staining of E-cadherin and Vimentin in tumors of nude mice; assay type: in vivo; conditions: 0.75 mg/Kg everyday
Method: ICC includes embedding the tumor cells in paraffin and slicing the embedded cells into slides having a thickness of […] by a slicer, deparaffinizing, rehydrating and renaturating, picking the slide out and putting the slide into the primary antibody E-cadherin; reacting for 1.5 h and washing the slide for three times with PBS, reacting with the secondary antibody for 30 min and washing the slide for three times with PBS, staining the slide with 3′,3′-diaminobenzendine (DAB) at a ratio of 1:30, and the slide was mounted with Entellanz. The expression amount of signaling-related proteins in the cells of tumor inoculated nude mice was detected by an immunochemistry staining method. In this test the expression of E-cadherin and Vimentin was particularly detected. Immunochemistry staining method and the quantitative method thereof were described as in the test example 2-2, and it is not illustrated any further. FIG. 29 illustrates photomicrographs of expression results of signaling-related proteins in the cells of tumor inoculated nude mice after the cells were stained through the immunochemistry staining method. FIGS. 30 and 31 were respective quantitative results of primary antibody reaction.

[2] = system: Normal Endothelial Cell (EAhy926 cell strain); assay: MTT cell viability assay; assay type: cell-based, human
Method: The cell viability was determined by a method of […] (MTT assay). The test method for assaying cell viability refers to steps provided by Parada-Turska et al.
The breast tumor cells MDA-MB-231 were inoculated in a 24-well plate (2.5×10^5 cells/well), and the next day after cells were adhered to the wall of the plate, the cells were washed with PBS. 1% FBS-DMEM culture medium was then added so as to synchronize cells. The next day compound II having different concentrations were added into the wells, and the cells were subsequently cultured in an atmosphere of 5% CO2 at 37° C. for 24 h. The cells were washed with PBS once, and 400 μl MTT agent was added in each well so as to react for 4 h. […] 200 μl supernatant was taken from the well and then added into a 96-well microplate, so as to measure the absorbance at 570 nm.
In the MTT assay, the umbilical vein endothelial cells (EAhy926 cell strain) was planted 80 percent full and cultured in a 1×HAT culture medium including 15% FBS-DMEM, 1% glutamine and 1% PSN (used for screening cells having the characteristic of cell fusion). […] The culture medium was replaced in 24 h before the experiment, and the number of cells was counted by a hemocytometer. […] The supernatant was taken and putted into a 96-well microplate, and then the absorbance was measured at a wavelength of 570 nm.

[3] = system: cells stimulated by 10 ng/mL TNF-α; assay: wound scratching assay of cells stimulated by TNF-α; assay type: cell-based; conditions: 10 and 20 μM, 24 h
Method: In the wound scratching assay for observing cell migration, the cells MDA-MB-231 (3×10^5) were planted in a 12-well plate, and the next day the cells were washed with PBS twice. The original culture medium then was replaced by 1% FBS cell culture medium. The next day a space was scratched at the bottom of the well. The cell culture medium was removed and the cells were washed with PBS twice. 1% FBS cell culture medium and the compound II of different concentrations were added and photographs were taken after 0, 12, 24 and 36 h so as to observe migration of cells. After the reaction, the cells were fixed for 30 min using 75% ice alcohol. After the alcohol was completely volatilized, the cells were stained with Giemsa Stain. The migration number of cells was counted in three random fields (200×) under the microscope (Lin et al., 2008). […] After the breast tumor cells were treated for 0, 12, 24 and 36 h, the quantitative result of effect of the compound II on metastasis of breast tumor cells MDA-MD-231 was observed, and the data results were represented by mean±SD values, where n=3. FIG. 19 illustrates the effect of the compound II in different doses on migration of cells stimulated by 10 ng/mL TNF-α and detected by the wound scratching assay, where the cells were observed under a microscope. […]

[4] = system: Skin Tumor Cell (A2058 cell strain); assay: MTT cell viability assay; assay type: cell-based; conditions: Homo sapiens
[5] = system: MMP-9, MMP2 and uPA in breast tumor cells MDA-MB-231; assay: Zymography enzyme activity assay; assay type: cell-based, human; conditions: MDA-MB-231, with dose increasing, FIG. 8B
Excerpt: Referring to FIG. 8B, the Zymography enzyme activity assay was used to detect effect of the compound II in different doses on enzyme activities of the MMP-9, MMP2 and uPA in the breast tumor cells MDA-MB-231. Moreover, referring to FIG. 9, the Zymography enzyme activity assay was used to detect effect of the compound I on enzyme activities of the MMP-9 and MMP2 in the human normal breast cells MCF-10A stimulated by TNF-α/TGF-β. In the Zymography enzyme activity assay, the cells (1×10^6) were planted in a 6-well plate. The next day after the cells were adhered to the wall, the cells were cultured in a serum free DMEM culture medium at an atmosphere of 5% CO2 in an incubator at 37° C. for 24 h. The compound II in different doses were added into the DMEM culture medium. In other test groups, the compound I was added, TNF-α/TGF-β were added or the compound I and TNF-α/TGF-β were added into the DMEM culture medium, wherein the concentration of compound I and TNF-α/TGF-β were 2 mM and 10 ng/ml, respectively. The cells were cultured in the culture medium for 2 h and then washed with PBS. The cell culture medium was putted into a microcentrifuge tube and centrifuged for 10 min at 1500 rpm. The supernatant was taken to perform a protein gel electrophoresis (SDS-PAGE), so as to separate the proteins. […]

IC50 [4]: 23.6 µM
SMILES: COC1=C(OC)C(=O)C(C)=C(C)C1=O [compound II]
expression amount of proteins used for facilitating tumor proliferation in tumor tissues [1]: low
expression amount of proteins used for inhibiting tumor proliferation in tumor tissues [1]: high
cell viability ([2]; EAhy926, concentration above 10 μM, 10 ng/mL TNF-α/TGF stimulation, FIG. 18): significantly decreased
IC50 ([2]; Homo sapiens, EA.hy 926, viability, EAhy926 cell strain): 35.1 µM
cell migration [3]: not obvious
enzyme activities of MMP-2, MMP-9 and uPA [5]: decreased

Source: patent publication US20150087722A1, “TREATMENT FOR BREAST TUMOR CELL METASTASIS” (China Medical University, priority 2012, published 2015)
